Experiments:
[1] = system: nociception by formalin; assay: Formalin-induced licking; assay type: in vivo, mice; conditions: naloxone 10 minutes before; acute and inflammatory phases, formalin 2.5% w/v
Protocol: Male Swiss mice varying from 25 to 35 g, were housed at 22° C.±2° C. under a 12 h light/12 h dark circle and with access to water and purina. The animals were acclimatized to the laboratory for at least 1 hour before testing and were used once throughout the experiments.
Mice were lightly anaesthetized, with exception of those used to analyze the first phase of fromalin-induced pain. The surface of the animals paws was injected with 20 μL of 2.5% w/v formalin. Two groups of mice (mice treated with T. catigua and control mice) were simultaneously observed over a period from 0 to 30 min after the formalin injection. The total time spent by the animal licking the injected paw was timed with a chronometer and was considered as an indicative of pain. The first phase of the nociceptive response normally occurred […] the formalin injection and the second phase was from 15 to 30 min after such induction. These phases represent the neurogenic and inflammatory responses, respectively. In order to avoid pharmacokinetic influences, different groups of animals were used to analyze each phase of the experiment. Alternatively, animals were pretreated with naloxone 10 min prior to the administration of compositions comprising an extract of T. catigua.

[2] = system: HCC; assay: Superfusion of isolated corpus cavernosum (human, HCC); assay type: cell-based
[3] = system: corpus cavernosum of the rabbit (RbCC); assay type: cell-based; conditions: for relaxation of RbCC in presence of ATP-dependent potassium channel blocker: blocker 10 μM (Glybenclamide, FIG. 4)

## CN1CC[C@]23c4c5ccc(O)c4O[C@H]2[C@@H](O)C=C[C@H]3[C@H]1C5 [morphine]
[1]
  analgesic action after pretreatment with naloxone: reverted

## O=[N+]([O-])OCC(CO[N+](=O)[O-])O[N+](=O)[O-] [GTN, glyceryltrinitrate]
[2]; Ach 0.6 μM, GTN 1.3 μM, Cat 10-100 μL, 4 tissue strips from 2 donators
  relaxation of HCC during L-NAME infusion: not significantly affected
[3]
  relaxation of RbCC in presence of tetrodotoxin: did not present any effect
  relaxation of RbCC in presence of ATP-dependent potassium channel blocker: without affecting
[3]; L-NAME 10 μM, FIG. 2, 6 experiments
  relaxation of RbCC during L-NAME infusion: not affected
[3]; atropine 1 μM, FIG. 3, 4 experiments
  relaxation of RbCC in presence of atropine: did not present any effect

## N=C(N)NCCC[C@H](N)C(=O)O [L-arg, L-arginine]
[3]; L-arg 300 μM after L-NAME, FIG. 2
  RbCC tonus on subsequent infusion after L-NAME: reverted the enhanced tonus

## CC1(C)Oc2ccc(C#N)cc2C(N2CCCC2=O)C1O (stereo not shown) [CMK, cromakalim]
[3]
  relaxation of RbCC in presence of ATP-dependent potassium channel blocker: inhibited

## COC(=O)[C@@H](N)CCCNC(=N)N[N+](=O)[O-] [L-NAME, N^m-nitro-L-arginine methyl ester]
[2]; infusion of L-NAME
  HCC tonus: enhanced the HCC tonus
[3]; infusion of L-NAME 10 μM, FIG. 2
  basal tonus of RbCC: enhanced the basal tonus

From US6335039B1, “Pharmaceutical formulations comprising vegetal material selected from trichilia” (Laboratorio Catarinense S/A, priority 1997, dated 2002)
